Results as given in patent publication US20230014907A1, “INHIBITORS OF APOL1 AND METHODS OF USING SAME” (Vertex Pharmaceuticals Incorporated, priority 2020, published 2023).

Experiments:
[1] = target: T1, G1 APOL1 (Homo sapiens, UniProt O14791, I384M/S342G); assay: Acute APOL1 Thallium Assay with Inducible Stable Clones of HEK 293 Cells; assay type: cell-based; conditions: HEK 293 inducible stable clones, G1 APOL1; read-out: Thallium Assay (IC50)
T1 construct: expressed in transfected cells
T1 sequence (O14791 28-398 S342G/I384M): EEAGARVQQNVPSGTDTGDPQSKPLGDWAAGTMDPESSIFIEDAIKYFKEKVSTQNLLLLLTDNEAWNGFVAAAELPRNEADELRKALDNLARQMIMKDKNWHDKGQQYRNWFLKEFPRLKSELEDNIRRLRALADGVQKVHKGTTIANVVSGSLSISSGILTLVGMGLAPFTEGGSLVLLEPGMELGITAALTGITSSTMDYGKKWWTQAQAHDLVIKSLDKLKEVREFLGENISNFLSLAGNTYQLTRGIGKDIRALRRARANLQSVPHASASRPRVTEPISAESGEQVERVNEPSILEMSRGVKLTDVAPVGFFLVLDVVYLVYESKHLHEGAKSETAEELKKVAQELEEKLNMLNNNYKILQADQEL
In short: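 HEK293 T-Rex cells with a stable tetracycline-inducible G1 APOL1 construct (clone DC3.25) were induced with tetracycline at plating, 26000 cells per well, then incubated at 37° C. They were loaded with an AM-ester thallium-sensitive dye and stimulated with Tl+. The fluorescence rise measured Tl+ influx through APOL1 pores.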

[2] = target: T2, APOL1 G1 Protein (Homo sapiens, UniProt O14791, I384M/S342G); assay: Trypanosoma brucei brucei Lysis Assay Using APOL1 Recombinant Protein (AlamarBlue viability); assay type: cell-based; conditions: read-out: Trypanosomal Assay (IC50)
T2 sequence (O14791 28-398 S342G/I384M): T1 sequence (O14791 28-398 S342G/I384M)
In short: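 Lister 427 bloodstream-form trypanosomes seeded at 120,000 per well in phenol-red-free, serum-free medium and lysed with recombinant APOL1 variant protein. Viability read by AlamarBlue (resazurin) fluorescence. Percent viability relative to untreated wells, interpolated from a standard curve of seeded parasites.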

O=C(CCc1c(-c2ccc(F)cc2)[nH]c2c(F)ccc(F)c12)N[C@@H](CO)C(F)(F)F [Compound 232, 3-[4,7-difluoro-2-(4-fluorophenyl)-1H-indol-3-yl]-N-[(1S)-2,2,2-trifluoro-1-(hydroxymethyl)ethyl]propanamide]
IC50 [1]: 250 to 1000 nM
IC50 [2]: 250 to 1000 nM

O=C(CCc1c(-c2ccc(F)cc2)[nH]c2c(F)cc(F)cc12)N1CC(CO)C1 [Compound 104]
IC50 [1]: > 1000 nM
IC50 [2]: > 1000 nM

O=C(CCc1c(-c2ccc(F)cc2)[nH]c2ccc(F)cc12)N1CCC(O)C1 (stereo not drawn) [Compound 42]
IC50 [1]: > 1000 nM
IC50 [2]: > 1000 nM

OCCCc1c(-c2ccc(F)cc2)[nH]c2c(F)cc(F)cc12 [Compound 517, 3-[5,7-difluoro-2-(4-fluorophenyl)-1H-indol-3-yl]propan-1-ol]
IC50 [1]: < 250 nM
IC50 [2]: < 250 nM

CC1(O)CCN(C(=O)CCc2c(-c3ccc(F)cc3)[nH]c3ccc(F)cc23)C1 (racemic) [Compound 88]
IC50 [1]: > 1000 nM
IC50 [2]: > 1000 nM

COCCN(C)C(=O)CCc1c(-c2ccc(F)cc2)[nH]c2c(F)cc(F)cc12 [Compound 156]
IC50 [1]: > 1000 nM
IC50 [2]: > 1000 nM
